The subject of this assay is C57BL/6 mice. Kind of assay: one-trial passive avoidance task, amnesia induced by cycloheximide. The format is in vivo. Conditions: 24 h after footshock and cycloheximide 20 mg/kg sc. As to the method:
The effect on memory process was tested in a one-trial passive avoidance task in C57BL/6 mice. The learning procedure was fundamentally the same as that used by Burbach et al (Science; 221, 1310-1312, 1983). The apparatus consisted of an illuminated compartment attached to a dark one with grid floor. Mice were placed in the light compartment and allowed to enter the dark one. When mice entered the dark compartment, an electric footshock (0.4 mA, 3 sec) was delivered. Immediately after receiving a footshock, mice were administered with cycloheximide (20 mg/kg, sc), a protein synthesis inhibitor, and a retention test trial was carried out 24 hours later. Retention of passive avoidance behavior was measured by the latency to reenter the dark compartment after placing mice in the light compartment. Five minutes before the testing, mice were treated with 5 μl of peptide in a dose of 10 pg and 10 ng by intracerebroventricular injection through a hypodermic needle attached to a 25 μl syringe. Compounds of the present invention were dissolved in saline. […] Median latencies in peptide-treated groups were expressed as a percentage of that in control, and either Mann-WhitneyU test for latencies or chi-square test for percent of mice showing latencies longer than 50 seconds was used in statistical analysis. Number of mice used in each group was 9-22.

Where [1] appears, read: intracerebroventricular injection (10 pg and 10 ng tested; dose not stated per value) 5 min before retention test.

Square brackets hold non-standard residues; d marks the D form. Peptide text beside a SMILES is read from it. * marks the point of attachment. Cys(free,S-linked) = N[C@@H](CS*)C(=O)O; pGlu = O=C1CC[C@@H](C(=O)O)N1

For the compound `NCCCC[C@@H](NC(=O)[C@@H]1CCCN1C(=O)[C@H](CSSC[C@H](N)C(=O)O)NC(=O)[C@H](CC(N)=O)NC(=O)[C@@H]1CCC(=O)N1)C(=O)O` [Example 1] ([pGlu]NC(Cys(free,S-linked))P[dK]-OH), the “median latency to reenter the dark compartment, as a percentage of that in control” value under setting [1] is 238%. Still for that read-out and setting: the result for `NCCCC[C@@H](NC(=O)[C@H]1CCCN1C(=O)[C@H](CSSC[C@H](N)C(=O)O)NC(=O)[C@H](CC(N)=O)NC(=O)[C@@H]1CCC(=O)N1)C(=O)O` [Example 6] ([pGlu]NC(Cys(free,S-linked))[dP][dK]-OH) reads 238%. With `C[C@H](NC(=O)[C@H](CSSC[C@H](N)C(=O)O)NC(=O)[C@H](CC(N)=O)NC(=O)[C@@H]1CCC(=O)N1)C(=O)N[C@H](CCCCN)C(=O)O` [Example 8] ([pGlu]NC(Cys(free,S-linked))A[dK]-OH), the “median latency to reenter the dark compartment, as a percentage of that in control” value under setting [1] was found to be 179%. On to `N=C(N)NCCC[C@H](NC(=O)[C@@H]1CCCN1C(=O)[C@H](CSSC[C@H](N)C(=O)O)NC(=O)[C@H](CC(N)=O)NC(=O)[C@@H]1CCC(=O)N1)C(=O)NCC(N)=O` [reference compound] ([pGlu]NC(Cys(free,S-linked))PRG-NH2), for which the “median latency to reenter the dark compartment, as a percentage of that in control” value (dose of 10 pg, intracerebroventricular injection 5 min before retention test) is given as 191 % of control.

Source of the values: US4748154A, “Peptide derivatives, their production and use” (Takeda Chemical Industries, Ltd., priority 1985, dated 1988).
